Data as given in paper PMC12559800, “A NADH Oxidase Nanozyme Restores Redox Homeostasis to Ameliorate Multi-Organ Aging and Ischemic Cardiomyopathy” (Research, 2025).

Biological target: T1, CX43 (connexin 43; recombinant human CX43) (Homo sapiens, UniProt P17302)
T1 construct: gene GJA1; recombinant human CX43 from GenScript, immobilised on CM5 chip
Test: SPR, Biacore T200, CX43 immobilised on CM5 chip
Type: binding

T1 sequence (P17302 2-382): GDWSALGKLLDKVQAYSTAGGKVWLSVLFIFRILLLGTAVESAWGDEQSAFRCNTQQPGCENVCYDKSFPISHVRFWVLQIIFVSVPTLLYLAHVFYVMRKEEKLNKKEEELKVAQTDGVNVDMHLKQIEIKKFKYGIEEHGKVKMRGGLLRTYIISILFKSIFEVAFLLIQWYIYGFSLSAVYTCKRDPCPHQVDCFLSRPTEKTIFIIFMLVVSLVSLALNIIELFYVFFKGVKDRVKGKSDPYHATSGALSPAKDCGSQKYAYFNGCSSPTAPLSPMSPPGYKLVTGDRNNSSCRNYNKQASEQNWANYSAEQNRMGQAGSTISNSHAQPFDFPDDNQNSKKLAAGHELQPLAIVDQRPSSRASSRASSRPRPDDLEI

NC(=O)c1ccc[n+]([C@@H]2O[C@H](COP(=O)([O-])OP(=O)(O)OC[C@H]3O[C@@H](n4cnc5c(N)ncnc54)[C@H](O)[C@@H]3O)[C@@H](O)[C@H]2O)c1 [NAD^+]
Kd: 0.0142 nM
